The test system of the first assay is A. galli (intestinal roundworm of chicken) larval stage 3; O. dentatum (nodular worm of swine) larval stages 3 and 4. The experiment in a line: Activity against Ascaridia galli and Oesophagostomum dentatum larvae in vitro (minimum effective concentration). It counts as cell-based. The following applies: in vitro; one or more of A. galli L3, O. dentatum L3, L4; threshold 1 μM; read-out: MEC (minimum effective concentration) against one or more of the tested nematodes.
Consider `O=C(CCN1CCC(Nc2ccc([N+](=O)[O-])c(C(F)(F)F)c2)CC1)N1CCN(c2ccc(Cl)cc2)CC1` [Example 199], for which the minimal effective concentration is less than 1 µM.
Turning to `N#Cc1ccc(N2CCN(C(=O)CCN3CCC(Nc4ccc([N+](=O)[O-])c(C(F)(F)F)c4)CC3)CC2)cc1` [Example 200], the minimal effective concentration was less than 1 µM.
As to `O=C(CC(=O)N1CCN(c2cccc(OC(F)(F)F)c2)CC1)N1CCC(Nc2ccc([N+](=O)[O-])c(C(F)(F)F)c2)CC1` [Example 210], the minimal effective concentration is less than 1 µM.
As to `O=C(CCN1CCC(c2cccc(C(F)(F)F)c2)CC1)N1CCC(Nc2ccc([N+](=O)[O-])c(C(F)(F)F)c2)CC1` [Example 212], the minimal effective concentration is less than 1 µM.
Same read-out and setting: for `O=C(CCC1CCN(c2cccc(C(F)(F)F)c2)CC1)N1CCC(Nc2ccc([N+](=O)[O-])c(C(F)(F)F)c2)CC1` [Example 215] the value was less than 1 µM; for `O=C(CCC1CCN(c2ccccc2)CC1)N1CCC(Nc2ccc([N+](=O)[O-])c(C(F)(F)F)c2)CC1` [Example 216], less than 1 µM; for `CC(C)(C)c1ccc(N2CCN(CCCC(=O)N3CCC(Oc4ccc([N+](=O)[O-])c(C(F)(F)F)c4)CC3)CC2)cc1` [Example 258], less than 1 µM.
The same measure, in the same setting: the figure for `O=C(CCCN1CCN(c2ccc(Cl)cc2)CC1)N1CCC(Oc2ccc([N+](=O)[O-])c(C(F)(F)F)c2)CC1` [Example 259] is less than 1 µM; for `O=C(CCCN1CCN(c2ccc(F)cc2)CC1)N1CCC(Oc2ccc([N+](=O)[O-])c(C(F)(F)F)c2)CC1` [Example 261] it is less than 1 µM; for `O=C(CCN1CCN(c2ccc(C(F)(F)F)cc2)CC1)N1CC[C@H](Nc2ccc([N+](=O)[O-])c(C(F)(F)F)c2)C1` [Example 285] it is less than 1 µM.
Still for that read-out and setting: for `COc1ccc(N2CCN(CCC(=O)N3CC[C@H](Nc4ccc([N+](=O)[O-])c(C(F)(F)F)c4)C3)CC2)cc1` [Example 289] the value was less than 1 µM; for `CCCCC(=O)N1CCC(OCC(=O)N2CCC(Nc3ccc([N+](=O)[O-])c(C(F)(F)F)c3)CC2)CC1` [Example 291], less than 1 µM; for `CC(C)(C)c1ccc(N2CCN(CCC(=O)N3CCC(Nc4ccc(C(F)(F)F)cn4)CC3)CC2)cc1` [Example 329], less than 1 µM.
Turning to `CCOC(=O)c1ccc(NC2CCN(C(=O)CCCN3CCN(c4ccc(Cl)cc4)CC3)CC2)cc1` [Example 338], the minimal effective concentration is less than 1 µM.
On the same count and under the same terms, the figure for `CC(C)(C)c1ccc(N2CCN(CCC(=O)N3CCC(Nc4ccc(S(C)(=O)=O)c(C(F)(F)F)c4)CC3)CC2)cc1` [Example 340] is less than 1 µM; for `CS(=O)(=O)c1ccc(NC2CCN(C(=O)CCN3CCN(c4ccc(Cl)cc4)CC3)CC2)cc1C(F)(F)F` [Example 341] it is less than 1 µM.
For `CS(=O)(=O)c1ccc(NC2CCN(C(=O)CCCN3CCN(c4ccc(Cl)cc4)CC3)CC2)cc1C(F)(F)F` [Example 343], the minimal effective concentration is less than 1 µM.
Same read-out and setting: the figure for `CC(C)(C)c1ccc(N2CCN(CCC(=O)N3CCC(Nc4cccc(C#N)c4)CC3)CC2)cc1` [Example 351] is less than 1 µM; for `O=C(CCCN1CCN(c2ccc(Cl)cc2)CC1)N1CCC(Nc2ccc(Cl)c(SC(F)(F)F)c2)CC1` [Example 359] it is less than 1 µM; for `COc1cc(NC2CCN(C(=O)CCN3CCC(c4ccc(Oc5ccccc5)cc4)CC3)CC2)ccc1[N+](=O)[O-]` [Example 376] it is less than 1 µM.
For `COc1cc(NC2CCN(C(=O)CCN3CCC(c4ccc(C(C)(C)C)cc4)CC3)CC2)ccc1[N+](=O)[O-]` [Example 380], the minimal effective concentration is less than 1 µM.

Still in this assay, the particulars now being: in vitro; one or more of A. galli L3, O. dentatum L3, L4; threshold 7 μM; read-out: MEC (minimum effective concentration) against one or more of the tested nematodes.
For `CN(C)S(=O)(=O)c1ccc(NC2CCN(C(=O)CCCN3CCN(c4ccc(Cl)cc4)CC3)CC2)cc1C(F)(F)F` [Example 349], the minimal effective concentration is less than 7 µM.
Turning to `O=C(CCN1CCN(c2ccc(F)cc2F)CC1)N1CCC(Nc2ccc([N+](=O)[O-])c(C(F)(F)F)c2)CC1` [Example 370], the minimal effective concentration is less than 7 µM.
Same read-out and setting: the figure for `CCCc1ccc(C2CCN(CCC(=O)N3CCC(Nc4ccc([N+](=O)[O-])c(OC)c4)CC3)CC2)cc1` [Example 379] is less than 7 µM; for `COc1cc(NC2CCN(C(=O)CCN3CCC(c4ccc(C(C)(C)C)cc4)CC3)CC2)ccc1[N+](=O)[O-]` [Example 380] it is less than 7 µM.
On the same count and under the same terms, for `COc1cc(NC2CCN(C(=O)CCN3CCN(c4ccc(C(F)(F)F)cc4)CC3)CC2)ccc1[N+](=O)[O-]` [Example 382] the value was less than 7 µM; for `COc1cc(NC2CCN(C(=O)CCN3CCN(c4ccc(Cl)c(C(F)(F)F)c4)CC3)CC2)ccc1[N+](=O)[O-]` [Example 384], less than 7 µM.

Staying with this assay, now noted: in vitro; two or more of A. galli L3, O. dentatum L3, L4; threshold 1 μM; read-out: MEC (minimum effective concentration) against two or more of the tested nematodes.
On to `O=C(CCN1CCN(c2cccc(C(F)(F)F)c2)CC1)N1CCC(Nc2ccc([N+](=O)[O-])c(C(F)(F)F)c2)CC1` [Example 183], for which the minimal effective concentration was less than 1 µM.
As to `O=C(CCN1CCN(c2cccc(OC(F)(F)F)c2)CC1)N1CCC(Nc2ccc([N+](=O)[O-])c(C(F)(F)F)c2)CC1` [Example 191], the minimal effective concentration is less than 1 µM.
Consider `O=C(CC(=O)N1CCN(c2ccc(Cl)c(C(F)(F)F)c2)CC1)N1CCC(Nc2ccc([N+](=O)[O-])c(C(F)(F)F)c2)CC1` [Example 202], for which the minimal effective concentration is less than 1 µM.
For the compound `CC(C)(C)c1ccc(N2CCN(C(=O)CC(=O)N3CCC(Nc4ccc([N+](=O)[O-])c(C(F)(F)F)c4)CC3)CC2)cc1` [Example 203], the minimal effective concentration is less than 1 µM.
Take `O=C(CCC1CCN(c2cccc(C(F)(F)F)c2)CC1)N1CCC(Nc2ccc([N+](=O)[O-])c(C(F)(F)F)c2)CC1` [Example 215]: the minimal effective concentration was less than 1 µM.
Take `O=C(CCC1CCN(c2ccccc2)CC1)N1CCC(Nc2ccc([N+](=O)[O-])c(C(F)(F)F)c2)CC1` [Example 216]: the minimal effective concentration is less than 1 µM.
As to `O=C(CCN1CCN(c2ccc(Cl)c(C(F)(F)F)c2)CC1)N1CCC(Oc2ccc([N+](=O)[O-])c(C(F)(F)F)c2)CC1` [Example 218], the minimal effective concentration was less than 1 µM.
Take `CC(C)(C)c1ccc(N2CCN(CCC(=O)N3CCC(Oc4ccc([N+](=O)[O-])c(C(F)(F)F)c4)CC3)CC2)cc1` [Example 220]: the minimal effective concentration was less than 1 µM.
`O=C(CCN1CCN(c2cccc(OC(F)(F)F)c2)CC1)N1CCC(Oc2ccc([N+](=O)[O-])c(C(F)(F)F)c2)CC1` [Example 225]: the minimal effective concentration is less than 1 µM.
The same measure, in the same setting: for `O=C([C@@H]1CCC[C@H](C(=O)N2CCC(Nc3ccc([N+](=O)[O-])c(C(F)(F)F)c3)CC2)C1)N1CCN(c2ccccc2)CC1` [Example 227] the value was less than 1 µM.
Still for that read-out and setting: the figure for `O=C(C1CCC[C@H](C(=O)N2CCN(c3ccccc3)CC2)C1)N1CCC(Oc2ccc([N+](=O)[O-])c(C(F)(F)F)c2)CC1` (some centres unmarked) [Example 228] is less than 1 µM; for `O=C(CCN1CCN(C2CCCCC2)CC1)N1CCC(Nc2ccc([N+](=O)[O-])c(C(F)(F)F)c2)CC1` [Example 241] it is less than 1 µM; for `Cc1ccc(N2CCN(CCS(=O)(=O)N3CCC(Nc4ccc([N+](=O)[O-])c(C(F)(F)F)c4)CC3)CC2)cc1` [Example 243] it is less than 1 µM.
For `O=[N+]([O-])c1ccc(NC2CCN(S(=O)(=O)CCN3CCN(c4ccc(C(F)(F)F)cc4)CC3)CC2)cc1C(F)(F)F` [Example 245], the minimal effective concentration is less than 1 µM.
The same measure, in the same setting: the figure for `O=[N+]([O-])c1ccc(NC2CCN(S(=O)(=O)CCN3CCN(C4CCCCC4)CC3)CC2)cc1C(F)(F)F` [Example 248] is less than 1 µM.
Same read-out and setting: for `COc1ccc(N2CCN(CCC(=O)N3CCC(Nc4ccc([N+](=O)[O-])c(C(F)(F)F)c4)CC3)CC2)cc1` [Example 254] the value was less than 1 µM; for `O=C(CCN1CCN(c2ccc(C(F)(F)F)cn2)CC1)N1CCC(Nc2ccc([N+](=O)[O-])c(C(F)(F)F)c2)CC1` [Example 255], less than 1 µM.
`O=C(CCCN1CCN(c2ccc(C(F)(F)F)cc2)CC1)N1CCC(Nc2ccc(C(F)(F)F)cc2)CC1` [Example 269]: the minimal effective concentration is less than 1 µM.
Still for that read-out and setting: for `COc1ccc(NC2CCN(C(=O)CCCN3CCN(c4ccc(C(F)(F)F)cc4)CC3)CC2)cc1` [Example 270] the value was less than 1 µM; for `O=C(CCN1CCN(c2ccc(C(F)(F)F)cc2)CC1)N1CCC(Nc2cccc(C(F)(F)F)c2)CC1` [Example 276], less than 1 µM.
The same measure, in the same setting: the figure for `N#Cc1ccc(NC2CCN(C(=O)CCN3CCN(c4ccc(C(F)(F)F)cc4)CC3)CC2)cc1` [Example 283] is less than 1 µM; for `COc1ccc(N2CCN(CCC(=O)N3CC[C@H](Nc4ccc([N+](=O)[O-])c(C(F)(F)F)c4)C3)CC2)cc1` [Example 289] it is less than 1 µM.
As for `CC(C)(C)c1ccc(N2CCN(CCC(=O)N3CCC(Nc4ccc(S(=O)(=O)c5ccc(F)cc5)cc4)CC3)CC2)cc1` [Example 294], the minimal effective concentration is less than 1 µM.
`C[S+]([O-])c1ccc(NC2CCN(C(=O)CCN3CCN(c4ccc(C(C)(C)C)cc4)CC3)CC2)cc1C(F)(F)F` (centres unmarked) [Example 299]: the minimal effective concentration was less than 1 µM.
Still for that read-out and setting: the figure for `CS(=O)(=O)c1ccc(NC2CCN(C(=O)CCN3CCN(c4ccc(Cl)cc4)CC3)CC2)cc1C(F)(F)F` [Example 341] is less than 1 µM; for `CN(C)S(=O)(=O)c1ccc(NC2CCN(C(=O)CCN3CCN(c4ccc(Cl)cc4)CC3)CC2)cc1C(F)(F)F` [Example 346] it is less than 1 µM; for `COc1ccc(N2CCN(CCC(=O)N3CCC(Nc4ccc([N+](=O)[O-])c(C(F)(F)F)c4)CC3)CC2)cc1OC` [Example 368] it is less than 1 µM.
Same read-out and setting: for `COc1cc(NC2CCN(C(=O)CCN3CCN(c4ccc(C(F)(F)F)cc4)CC3)CC2)ccc1[N+](=O)[O-]` [Example 382] the value was less than 1 µM.

Still in this assay, the particulars now being: read-out: MEC (minimum effective concentration) against two or more of the tested nematodes, in vitro; two or more of A. galli L3, O. dentatum L3, L4; threshold 1 μM.
Turning to `O=C(CCCN1CCN(c2ccc(C(F)(F)F)cc2)CC1)N1CCC(Nc2ccc(Cl)c(Cl)c2)CC1` [Example 272], the minimal effective concentration is less than 1 µM.
The same measure, in the same setting: for `O=C(CCCN1CCN(c2ccc(C(F)(F)F)cc2)CC1)N1CCC(Nc2ccc(Cl)cc2)CC1` [Example 273] the value was less than 1 µM.
On the same count and under the same terms, the figure for `O=C(CCN1CCN(c2ccc(C(F)(F)F)cc2)CC1)N1CCC(Nc2ccc(Cl)cc2)CC1` [Example 282] is less than 1 µM.
Same read-out and setting: the figure for `CSc1ccc(NC2CCN(C(=O)CCCN3CCN(c4ccc(C(C)(C)C)cc4)CC3)CC2)cc1C(F)(F)F` [Example 317] is less than 1 µM.

These data come from patent publication US9096524B2, “Anthelmintic agents and their use” (Intervet International B.V., priority 2009, dated 2015).
